Results reported in paper PMC7321210, “Synthesis and Studies of the Inhibitory Effect of Hydroxylated Phenylpropanoids and Biphenols Derivatives on Tyrosinase and Laccase Enzymes” (Molecules, 2020).
Entries after “also recorded” stand apart in the source; their conditions may differ.

Tests used:
laccase = assay: Laccase amperometric biosensor: IC50 and type of inhibition; assay type: biochemical; conditions: for Type of Inhibition Laccase: Lineweaver-Burk plot, biosensor exposed 30 min to twice the lowest inhibiting concentration; for VMAX, substrate + inhibitor, LAC: dopamine calibration 0-140 mM after inhibitor exposure, n=4 biosensors; for IC50: enzyme immobilized on biosensor, dopamine 50 µM, PBS pH 6.0
Experimental: (§1) Inhibition types and IC50 were assessed by means of carbon-based amperometric biosensors [61, 62, 63, 64, 65], that are described in the Supplementary Materials. During the experiments carried out to determine the IC50 values, the lowest inhibitory concentration of each compound was also evaluated.
(§2) To verify the inhibition types, the following protocol was used. An initial calibration with dopamine, ranging between 0 and 140 mM, was performed in order to ascertain the values of VMAX and KM. Another calibration with the same protocol was performed after having exposed the biosensors to twice the lowest inhibiting concentration of each inhibitor, in order to ensure the safe inhibition of enzymatic activity. The biosensors were exposed to the inhibitor for 30 min and after having reached a stabile baseline, a calibration with dopamine, ranging between 0 and 140 mM, was performed and the value of VMAX and KM were calculated. The variations of both VMAX and KM were then analyzed by using the Lineweaver-Burk plot in order to identify the type of inhibition induced by the tested compound. The statistical difference in VMAX and KM, before exposing the biosensors to the inhibitor and then afterwards, was calculated by means of a paired t-test (p < 0.05).
(§3) The biosensors were prepared starting from a Teflon™-insulated silver wire (30 mm in length; Ø = 125 μm),
(§4) Briefly, 1 mm of the silver wire was exposed and then introduced into a silica
(§5) capillary cylinder (10 mm in length; I.D. Ø = 180 μm, Polymicro Technologies, Phoenix, AZ, USA) partly
(§6) packed with graphite-loaded (55% w/w) epoxy resin. By mixing 850 mg of graphite with 500 mg of Araldite-
(§7) M and 200 mg of hardener, a preliminary disc electrode of carbon-composite was fabricated (Ø = 180 μm; area:
(§8) 2.5 × 10−4 cm2) by filling the silica capillary tubing with the mixture. The silver wire assured a good electrical
(§9) contact. After 24 h at 40 °C, the electrode surface was cleaned using a high-speed drill (Dremel® 300) equipped
(§10) with an aluminum oxide grinding wheel. On top of the electrode surface a 1 µl of Tyrosinase or Laccase
(§11) solution was deposited. After the complete evaporation of water at room temperature, the biosensor was
(§12) quickly dipped in the polyurethane solution in order to entrap the enzyme on the electrode surface, and after
(§13) the complete evaporation of the solvent biosensors were put to stabilize in PBS pH=6.0 overnight.
(§14) The electrochemical measurements were performed at room temperature in a classical three-electrode
(§15) electrochemical cell consisting of four biosensors as working electrodes, a reference electrode (Ag/AgCl in
(§16) Constant potential amperometry (CPA) was used for in-vitro calibrations and for inhibition evaluation
(§17) experiments by applying a constant potential of -50 mV against an Ag/AgCl reference electrode, by means of
(§18) a four-channel potentiostat (eDAQ Quadstat, e- Corder 410, eDAQ Europe, Poland) and the software Chart (v
(§19) 5.5, eDAQ Europe, Poland). Thus, once the stabilization of the baseline of biosensors was reached, increasing
(§20) volumes of a stock solution of dopamine 1 M were added in order to obtain different concentrations ranging

tyrosinase = tyrosinase (Agaricus bisporus, UniProt C7FF04); assay: Tyrosinase amperometric biosensor: IC50 and type of inhibition; assay type: biochemical; conditions: for Type of Inhibition Tyrosinase: Lineweaver-Burk plot, biosensor exposed 30 min to twice the lowest inhibiting concentration; for VMAX, substrate + inhibitor, TYR: dopamine calibration 0-140 mM after inhibitor exposure, n=4 biosensors;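 as to all read-outs here: Carbon-composite amperometric tyrosinase biosensors with polyurethane-entrapped enzyme, calibrated in a three-electrode cell against Ag/AgCl at room temperature, before versus after inhibitor exposure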
Chain of tyrosinase (C7FF04 2-392): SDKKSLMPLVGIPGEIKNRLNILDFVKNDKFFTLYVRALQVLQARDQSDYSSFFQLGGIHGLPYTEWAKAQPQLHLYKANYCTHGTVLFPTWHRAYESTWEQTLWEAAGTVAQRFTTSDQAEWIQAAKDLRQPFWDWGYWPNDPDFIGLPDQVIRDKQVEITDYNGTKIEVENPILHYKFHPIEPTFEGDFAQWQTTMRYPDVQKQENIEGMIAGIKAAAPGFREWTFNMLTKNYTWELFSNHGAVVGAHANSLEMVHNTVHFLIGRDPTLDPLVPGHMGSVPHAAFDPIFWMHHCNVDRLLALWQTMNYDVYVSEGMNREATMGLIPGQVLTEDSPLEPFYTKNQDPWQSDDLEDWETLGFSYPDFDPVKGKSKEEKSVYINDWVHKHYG
Experimental: as §1, §2, §3, §4, §5, §6, §7, §8, §9, §10, §11, §12, §13, §14, §15, §16, §17, §18, §19, §20

mushroom tyrosinase = assay: Spectrophotometric (UV-Vis) detection of tyrosinase inhibitory activity; assay type: biochemical; conditions: for tyrosinase inhibition in words, tyrosine versus dopamine as substrate: UV-Vis, absorbance at 311 or 472 nm, Figure 3
Experimental: Kinetic assays were carried out by measuring the appearance of the product of either tyrosine or dopamine oxidation in the reaction medium at 311 and 472 nm, respectively, in a Shimadzu UV-2501 spectrophotometer (Shimadzu, Kyoto, Japan) equipped with the UV-Probe software, using a tandem quartz cuvette (Hellma, Milan, Italy) with a 2 × 4.375-mm path length [1, 2, 51]. Briefly, one side of the dual chamber cuvette was filled with 1000 µl of mushroom tyrosinase solution in 50 mM phosphate buffer, pH 6.8, 166 Units/mL using tyrosine as substrate or a 16.6 Units/mL when dopamine was used as substrate. The other chamber was loaded with 980 µL of substrate solution (180 µM tyrosine or 18 µM dopamine) in 20 mM phosphate buffer (pH 6.8) added of either 20 µL of DMSO (control) or 20 µL of a 2 mM (0.2 mM in dopamine experiments) solution of tested inhibitors in DMSO. A background spectrum in the 250–700 nm range was acquired with a 2.0 nm slit and fast speed before starting the reaction. Thereafter, the solutions in the two chambers were mixed by inversion and the UV-Vis spectra were acquired at increasing time intervals. Spectra were recorded at 311 or 472 nm in the presence of the inhibitor before mixing, and after either 24 or 10 min, using tyrosine or dopamine as a substrate, respectively. Data processing was performed with UV Probe and OriginPro 2019 (v. 9.60) softwares.
The mushroom tyrosinase was used as purchased without further purification. All solutions (tyrosinase, substrates and inhibitors) were filtered through a 0.45-μm syringe filter, aliquoted in Eppendorf tubes, and stored in freezer. The relative concentration was determined spectrophotometrically (εtyrosine 274.6 nm = 1420 M^−1·cm^−1; εdopamine at 280 nm = 2670 M^−1·cm^−1; εtyrosinase at 280 nm = 1426 M^−1·cm^−1).
Tyrosine was dissolved in 50 mM phosphate buffer, pH 6.8, final concentration 80 µM and with the added inhibitor (final concentration 20 µM) and tyrosinase (83 U/mL). The absorbance values were determined after 24 min of incubation. In the presence of dopamine, experiments were performed using 10-fold diluted solutions, and the absorbance values were determined after 10 min of incubation.

PC12 cells [1] = assay: Protection of PC12 cells against MnCl2 damage (MTT); assay type: cell-based, rat; conditions: concentration with significant increase in viability vs MnCl2; co-treatment with 1 mM MnCl2; n.p.: no protection
Experimental: (§21) PC12 cells, rat pheochromocytoma-derived cell line (ATCCCRL-1721) (passages 12–25) were maintained at 37
(§22) °C humidified air containing 5% CO2/95% atmospheric air and cultured in a 60 mm plastic culture plates with
(§23) Dulbecco’s modified Eagle’s medium supplemented with 10% horse serum, 5% fetal bovine serum and 1% of
(§24) penicillin/streptomycin. PC12 cells were treated for 24 h with the different compounds at different
(§25) concentrations ranging from 1 to 40 μM, to evaluate their eventual toxicity. Then, in order to assess the
(§26) eventual compounds’ protection properties, PC12 cell treated with hydrogen peroxide (100μM) in association
with increasing concentration of the above-mentioned molecules, from 1 up to 20 μM. For the compounds that
against MnCl2 insult. For all treatments cell viability was measured by means of MTT assay, as explained in
(§27) At the end of the exposure time of each experiment, the cell viability was assessed by means of MTT (3-(4,5-
For this purpose, 1 mg/mL of MTT was added
(§28) to each sample and incubated for 4 h at 37 °C. Only viable cells are able to convert the soluble dye MTT into
the insoluble formazan crystals. After the incubation the MTT supernatant solution was removed, the cells […]
(§29) isopropanol. After centrifugation of the solution at 4,000 rpm for 5 min, the absorbance for each sample was
assessed by means of a Bauty Diagnostic Microplate Reader at 578 nm. […]

PC12 cells [2] = assay: Protection of PC12 cells against H2O2-induced oxidative stress (MTT); assay type: cell-based, rat; conditions: for H2O2 Damage Protection: concentration with significant increase in viability vs H2O2, co-treatment with 100 μM H2O2, n.p.: no protection; for change of cell viability versus H2O2 alone, in words: co-treatment with 100 μM H2O2, compounds 1 up to 20 μM
Experimental: (§30) 1.4 Viability and oxidative stress assays
as §21, §22, §23, §24, §25, §26
with increasing concentration of the above-mentioned molecules, from 1 up to 20 μM.
(§31) For all treatments cell viability was measured by means of MTT assay, as explained in
as §27
(§32) dimethyl-thiazol-2-yl)-2,5-diphenyltetrazoliumbromide) assay. For this purpose, 1 mg/mL of MTT was added
as §28
(§33) the insoluble formazan crystals. After the incubation the MTT supernatant solution was removed, the cells
(§34) were washed in phosphate-buffered saline (PBS) and centrifuged while the pellet was dissolved in 2 mL of
as §29
(§35) assessed by means of a Bauty Diagnostic Microplate Reader at 578 nm. All experiments were performed in 24-
(§36) well plates (1 × 10^5 cells/mL/well) and repeated in triplicate.

PC12 cells [3] = assay: Viability of PC12 cells (MTT assay); assay type: cell-based, rat; conditions: cell viability < 80%; screening from 1 to 40 μM, 24 h
Experimental: Initially, the inhibitor concentrations on PC12 cells, i.e., a rat pheochromocytoma-derived cell line, were screened to assess the possible cytotoxicity of the molecules under study [55].
as §30, §21, §22, §23, §24
concentrations ranging from 1 to 40 μM, to evaluate their eventual toxicity.
as §31
the following paragraph [17].
as §27, §32, §28, §33, §34, §29, §35, §36

Tenebrio molitor = assay: Insecticidal properties on mealworm larvae; assay type: in vivo; conditions: Tenebrio molitor, topical, 120 h, larvae immersed three seconds in 2.5 mL acetone solution 6.4 mg/mL, reared five days; DFB as Dimilin WP 25% a.i., 25.6 mg/mL; read-out: Mortality% (Mean ± SD)
Experimental: Late instar larvae of Tenebrio molitor from a twenty-year-old insect culture at the Research Institute on Terrestrial Ecosystems (National Research Council, Sassari, Italy) were used in the experiments. The species was reared on bran flour, with the integration of fresh vegetables, at 25 °C, 65% relative humidity and 16:8 hours light/darkness.
One hundred medium instar larvae were isolated in a petri dishes (diam. 50 mm). They were then immersed for three seconds in 2.5 mL of an acetone solution (concentration 6.4 mg/mL w:v) of one of the fourteen compounds listed in Table 3. In addition, a treatment with the commercial formulation Dimilin (WP, 25% a.i. diflubenzuron) (acetone solution, 25.6 mg/mL w:v) and a negative control (no treatment) were tested.
After treatment, the larvae were subdivided into five 20-specimen groups and reared for five days in a small PVC box (150 L × 120 W × 50 H mm) with the same feed and conditions as standard rearing. Mortality was recorded daily.
The statistical analysis was conducted with the R software (R Development Core Team 2016). Mortality data, expressed as a percentage, were arcsin(√x)-transformed to satisfy assumptions of normality. ANOVA was performed by the Duncan test for mean separation.

SMILES	Type of Inhibition Laccase (laccase)	VMAX, substrate + inhibitor, LAC (laccase)	Type of Inhibition Tyrosinase (tyrosinase)	VMAX, substrate + inhibitor, TYR (tyrosinase)	tyrosinase inhibition in words, tyrosine versus dopamine as substrate (mushroom tyrosinase)	MnCl2 Damage Protection (PC12 cells [1])	H2O2 Damage Protection (PC12 cells [2])	Toxic Concentration (PC12 cells [3])	pest or weed control at 6400 µg/mL (Tenebrio molitor)	IC50 (laccase)	% inhibition of tyrosinase (mushroom tyrosinase; comparable with both substrates, tyrosine 80 µM, inhibitor 20 µM, 24 min, dopamine 10-fold diluted solutions, 10 min)	change of cell viability versus H2O2 alone, in words (PC12 cells [2])	melting point
CC(=O)C=Cc1ccc(O)cc1O [Compound 7, reference compound]	competitively; also recorded: competitive	188.4±9.0 nA	competitively; also recorded: competitive	114.1±12.5 nA	most active tyrosinase inhibitor in the presence of both substrates	n.p.	1 µM	>10 µM	5 ± 7.07%	–	–	–	–
COc1cc(/C=C/C(=O)c2ccccc2)ccc1O [Compound 10]	competitive	89.2±7.7 nA	uncompetitive or mixed; also recorded: mixed	31.5±2.9 nA	–	n.p.	20 µM	>20 µM	–	212 nM	10%	–	–
OC[C@H]1O[C@@H](Oc2ccc(-c3ccc(O)cc3)cc2)[C@H](O)[C@@H](O)[C@@H]1O [Compound 18, (2S,3R,4S,5S,6R)-2-((4’-hydroxy-[1,1’-biphenyl]-4-yl)oxy)-6-(hydroxymethyl)tetrahydro-2H-pyran-3,4,5-triol]	competitively; also recorded: competitive	98.1±3.3 nA	competitively; also recorded: competitive	145.8±17.8 nA	predominant inhibition of tyrosine oxidation	–	n.p.	none	–	2620 nM	–	significant decrease (p < 0.05 vs H2O2) in cells viability at all concentrations tested	260 to 262 °C
OC[C@H]1O[C@@H](Oc2ccc(-c3ccc(O)c(Br)c3)cc2Br)[C@H](O)[C@@H](O)[C@@H]1O [Compound 19, (2S,3R,4S,5S,6R)-2-((3,3’-dibromo-4’-hydroxy-[1,1’-biphenyl]-4-yl)oxy)-6-(hydroxymethyl)tetrahydro-2H-pyran-3,4,5-triol]	competitive	111.4±8.9 nA	noncompetitive	123.5±9.8 nA	predominant inhibition of tyrosine oxidation	–	n.p.	none	–	130 nM	–	significant decrease (p < 0.05 vs H2O2) in cells viability at all concentrations tested	176 to 178 °C
